Key:
Orf2 [1] = experiment: Promiscuous activity of ORF2 with flavonoids and other compounds, [14C]GPP TLC; assay type: biochemical, Streptomyces sp. strain CL190; details: for Orf2 prenyltransferase activity in the presence of flavonoids, isoflavonoids and related compounds: GPP as prenyl donor, FIG. 2B; for function as substrates for Orf2 (converted into prenylated derivatives): purified recombinant Orf2 incubated with prenyl donor and prenyl acceptor, FIGS. 2A and 2B
Method: FIG. 2B illustrates the promiscuous activity of Orf2. Several assays were conducted, employing a variety of potential substrates, i.e., 1,3-DHN (1), 1,6-DHN (2), 2,7-DHN (3), 4-HPP (4) and several isoflavonoids and polyketide derivatives, including daidzein (7,4′-dihydroxyisoflavonone, 5), formononetin (7-hydroxy, 4′-methoxyisoflavonone, 6), fisetin (3,3′,4′,7-tetrahydroxyflavone, 7), genistein (5,7,4′-trihydroxyisoflavone, 8), naringenin (5,7,4′-trihydroxyflavonone, 9), flaviolin (10), olivetol (11), olivetolic acid (12), and resveratrol (3,4′,5-trihydroxystilbene, 13). The chemical structures of four reaction products (i.e., 1,6-dihydroxy 2-geranyl naphthalene (14), 1,6-dihydroxy 5-geranyl naphthalene (15), 6-geranyl naringenin (16) and 7-O-geranyl naringenin (17)) were determined by both MS and ^1H NMR analyses. The reaction buffer consisted of 50 mM HEPES (pH 7.5), 5 mM MgCl2, and 0.1 mM GPP, 0.009 mM [^14C]GPP, and 0.1 mM of each substrate, in a final volume of 20 μl. The reaction was initiated by adding 30 μg of Orf2 to the assay mixture. After incubation at 25° C. for 6 hours, the mixture was dried, and spotted on a silica gel TLC plate. The TLC plate was developed with a chloroform/methanol (15:1) solvent mixture. Reaction products were detected with a [^14C] imaging plate (Fuji Photo Film).
The reaction buffer employed contained 50 mM HEPES (pH 7.5), 5 mM DTT (as needed), 5 mM MgCl2, 0.1 mM of each prenyl acceptor, 0.1 mM GPP, and 0.01 mM [^14C]GPP in a final volume of 20 μl. The reaction was initiated by adding 20 μg of ORF2 protein to the assay mixture. After incubation at room temperature for 4 hrs., the reaction mixture was dried using SpeedVac and the dried residue was spotted on a silica gel TLC plate. The plate was developed with chloroform:methanol (15-30:1). Reaction products were detected with a phosphoimager. The compounds tested were daidzein, fisetin, formononetin, genistein, naringenin, 4-HPP and DHN2.

antibacterial = details: Schutz, Phytochemistry 40:1273-1277 (1995); cited from earlier work
Orf2 [2] = experiment: Detection of prenyltransferase activity of ORF2, TLC with UV 254 nm, incl. Mg2+ dependence; assay type: biochemical, Streptomyces sp. strain CL190; details: for reaction products of prenyl acceptor with ORF2: additional studies of Example 5; for prenyltransferase activity of ORF2: 5 mM prenyl acceptor, 5 mM MgCl2, 4 hrs room temperature; for prenylated products with ORF2: 5 mM DHN2, 5 mM GPP
HypSc = experiment: Detection of prenyltransferase activity of HypSc (TLC); assay type: biochemical, Streptomyces coelicolor A3(2); details: for reaction products of prenyl acceptor with hypSc: assay of Example 5 repeated with hypSc
Method: FIG. 7 relates to the functional evaluation of HypSc. Thus, HypSc prenyltransferase activity was assayed as described above with respect to FIG. 2A, using 1,6-DHN as a prenyl acceptor (in each of lanes 1-4), with no prenyl acceptor in lane 1, DMAPP in lanes 2 and 3, and GPP in lane 4. No Mg^2+ was used in lane 2. The samples were incubated overnight at room temperature.
In order to validate this model, HypSc was subcloned from genomic DNA, and over-expressed in E. coli as an octa-histidine tagged protein and purified for Ni^2+-chelation chromatography. The purified enzyme was then assayed for prenyltransferase activity using DMAPP and GPP as prenyl donors.
The assay described in Example 5 was repeated with hypSc and (a) 1,6-DHN (2), (b) 2,7-DHN (3), (c) daidzein ([…], 5), (d) genistein (5,7,4′-trihydroxyisoflavone, 8), (e) naringenin (5,7,4′-trihydroxyflavonone, 9), (f) olivetol (12), and (g) resveratrol (3,4′,5-trihydroxystilbene, 13).

Structure (SMILES): CCCCCc1cc(O)cc(O)c1C(=O)O [olivetolic acid]
- Orf2 prenyltransferase activity in the presence of flavonoids, isoflavonoids and related compounds (Orf2 [1]): active

Structure (SMILES): CC(C)=CCC/C(C)=C/Cc1c(O)cc2c(c1O)C(=O)C[C@@H](c1ccc(O)cc1)O2 [6-geranyl naringenin]
- antibacterial activity (antibacterial): significant antibacterial activity

Structure (SMILES): O=C1C(O)=CC(=O)c2c(O)cc(O)cc21 [flaviolin, 2,5,7-trihydroxy-1,4-naphthoquinone]
- function as substrates for Orf2 (converted into prenylated derivatives) (Orf2 [1]): function as substrates

Structure (SMILES): CCCCCc1cc(O)cc(O)c1 [olivetol]
- reaction products of prenyl acceptor with ORF2 (Orf2 [2]): 2-geranyl-olivetol and 4-geranyl-olivetol
- Orf2 prenyltransferase activity in the presence of flavonoids, isoflavonoids and related compounds (Orf2 [1]): active
- reaction products of prenyl acceptor with hypSc (HypSc): 2-dimethylallyl-olivetol and 4-dimethylallyl-olivetol

Structure (SMILES): O=c1c(-c2ccc(O)cc2)coc2cc(O)cc(O)c12 [genistein, 5,7,4′-trihydroxyisoflavone]
- reaction products of prenyl acceptor with ORF2 (Orf2 [2]): 7-O-geranyl-genistein
- Orf2 prenyltransferase activity in the presence of flavonoids, isoflavonoids and related compounds (Orf2 [1]): showed prenyltransferase activity
- reaction products of prenyl acceptor with hypSc (HypSc): no reaction products detected

Structure (SMILES): Oc1ccc2ccc(O)cc2c1 [2,7-DHN]
- prenyltransferase activity of ORF2 (Orf2 [2]; prenyl donor GPP): prenyltransferase activity was observed
- reaction products of prenyl acceptor with ORF2 (Orf2 [2]): 1-geranyl-2,7-DHN and 1,6-digeranyl-2,7-DHN
- function as substrates for Orf2 (converted into prenylated derivatives) (Orf2 [1]): function as substrates
- reaction products of prenyl acceptor with hypSc (HypSc): 1-dimethylallyl-2,7-DHN

Structure (SMILES): O=c1c(O)c(-c2ccc(O)c(O)c2)oc2cc(O)ccc12 [fisetin, 3,3′,4′,7-tetrahydroxyflavone]
- Orf2 prenyltransferase activity in the presence of flavonoids, isoflavonoids and related compounds (Orf2 [1]): little or no activity

Structure (SMILES): N[C@@H](Cc1ccccc1)C(=O)O [phenylalanine]
- function as substrates for Orf2 (converted into prenylated derivatives) (Orf2 [1]): did not serve as substrates

Structure (SMILES): Oc1ccc2c(O)cccc2c1 [1,6-DHN, 1,6-dihydroxynaphthalene]
- prenylated products with ORF2 (Orf2 [2]; absence of magnesium): no prenylated products were observed
- prenylated products with ORF2 (Orf2 [2]; presence of magnesium (5 mM MgCl2)): prenylated products were readily observed
- prenyltransferase activity of ORF2 (Orf2 [2]; either prenyl donor FPP or GPP): prenyltransferase activity was observed
- prenylated products detected by thin layer chromatography (Orf2 [2]; Orf2 incubated with 1,6-DHN and GPP): readily detected
- reaction products of prenyl acceptor with ORF2 (Orf2 [2]): 5-geranyl-1,6-DHN and 2-geranyl-1,6-DHN
- function as substrates for Orf2 (converted into prenylated derivatives) (Orf2 [1]): function as substrates
- prenyltransferase activity of HypSc (HypSc; DMAPP as prenyl donor, absence of Mg2+): Notable prenyltransferase activity was detected
- reaction products of prenyl acceptor with hypSc (HypSc): 5-dimethylallyl-1,6-DHN

Structure (SMILES): CC(C)=CCC/C(C)=C/COP(=O)(O)OP(=O)(O)O [GPP, geranyl diphosphate]
- relative activity of Orf2 with prenyl donor (Orf2 [2]; purified recombinant Orf2, prenyl donor DMAPP (C5), GPP (C10) or FPP (C15) with aromatic acceptors): highest relative activity

Structure (SMILES): Oc1cc(O)c2ccccc2c1 [1,3-DHN, 1,3-dihydroxynaphthalene]
- prenyltransferase activity of ORF2 (Orf2 [2]; either prenyl donor FPP or GPP): prenyltransferase activity was observed
- function as substrates for Orf2 (converted into prenylated derivatives) (Orf2 [1]): function as substrates

Structure (SMILES): N[C@@H](Cc1ccc(O)cc1)C(=O)O [tyrosine]
- function as substrates for Orf2 (converted into prenylated derivatives) (Orf2 [1]): did not serve as substrates

Structure (SMILES): O=C(O)C(=O)Cc1ccc(O)cc1 [4-HPP, 4-hydroxyphenylpyruvate]
- function as substrates for Orf2 (converted into prenylated derivatives) (Orf2 [1]): converted by Orf2 into a prenylated derivative

Structure (SMILES): Oc1ccc(C=Cc2cc(O)cc(O)c2)cc1 [resveratrol, 3,4′,5-trihydroxystilbene]
- reaction products of prenyl acceptor with ORF2 (Orf2 [2]): 4-geranyl-resveratrol
- Orf2 prenyltransferase activity in the presence of flavonoids, isoflavonoids and related compounds (Orf2 [1]): showed prenyltransferase activity
- reaction products of prenyl acceptor with hypSc (HypSc): 4-dimethylallyl-resveratrol

From patent publication US8124390B2, “Aromatic prenyltransferases, nucleic acids encoding same and uses therefor” (The Salk Institute for Biological Studies, priority 2005, dated 2012)
